US11746374B2, “Methods and platform for screening and selecting metabolites and their receptors” (BOARD OF REGENTS, THE UNIVERSITY OF TEXAS SYSTEM, priority 2017, dated 2023)
Read-outs that look alike come from different tables or passages of the source.

Tests used:
P2X1 = biological target: T1, P2X1 (Homo sapiens, UniProt P51575); test: Aequorin functional assay of P2X receptors in yeast; type: cell-based; conditions: upon ATP addition
T1 construct: expressed in transfected cells; host or cells: Saccharomyces cerevisiae BY4741 dCne1p, genome-integrated under the GAL1 promoter
T1 sequence (P51575 1-399): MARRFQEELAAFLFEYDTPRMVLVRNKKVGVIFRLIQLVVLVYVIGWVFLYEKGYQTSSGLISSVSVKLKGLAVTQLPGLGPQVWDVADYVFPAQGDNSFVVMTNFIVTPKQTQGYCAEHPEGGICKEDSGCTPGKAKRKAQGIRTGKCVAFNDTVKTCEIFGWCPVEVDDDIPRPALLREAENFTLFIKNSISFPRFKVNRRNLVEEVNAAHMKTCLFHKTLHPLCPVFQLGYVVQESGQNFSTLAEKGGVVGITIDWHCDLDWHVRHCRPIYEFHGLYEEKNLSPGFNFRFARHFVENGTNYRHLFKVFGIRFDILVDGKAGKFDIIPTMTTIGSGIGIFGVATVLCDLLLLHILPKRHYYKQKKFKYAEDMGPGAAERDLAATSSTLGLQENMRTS
Protocol: (§1) Ion channel activity in yeast was tested with the purinergic P2X ion channel family. Channel gating was assessed by an aequorin assay in which aequorin is co-expressed with the receptor and, upon addition of the prosthetic group coelenterazine and addition of calcium, blue light is released. The aequorin-based functional assay was performed in all seven P2X receptors (FIG. 8). P2X1-7 were integrated into the chromosome to mitigate copy number variation between clones and were induced with galactose with the pGal1 promoter. […] Among those receptors that didn't work, it was suspected that improvements in expression and trafficking can improve functionality. For example, by modulating trafficking domains within the P2X4 receptor, aggregation was reduced in vesicles (FIG. 9), and it is believed that this tactic can be employed in other receptors. […] This can be because P2X2 has the slowest desensitization rates of the family (and is often considered “non-desensitizing”) and has the highest unitary conductance (30 pS).
(§2) BY4741ΔCne1p cells were transformed with vectors containing P2X variants. Transformants were validated and made competent for a subsequent transformation with a vector containing aequorin under the expression of the constitutive PGK2 promoter. Overnight cells were induced with 2% […] for 20 hours. Following receptor expression, cells were collected by centrifugation and concentrated to 500 μL. The concentrated cells were then incubated with 5 μL of 1 mg/mL coelenterazine for 30 minutes at room temperature. Washed cells were then resuspended in softening buffer (1 M Sorbitol, 25 mM EDTA, 50 mM DTT), followed by washes in 1 M sorbitol and water. […] Using an F500, 25 μL of cells were monitored for luminescence for 5 seconds. Upon addition of ligand or buffer (100 μL), cells were monitored for luminescence for varying times. […] Luminescence was monitored before and after the addition of 100 μL of 10 μM ATP. Areas under the curve were calculated and plotted against a negative control to determine the IC50.

P2X4 = biological target: T2, P2X4 (Homo sapiens, UniProt Q99571); test: as above; type: cell-based; conditions: upon ATP addition
T2 construct: expressed in transfected cells; host or cells: Saccharomyces cerevisiae BY4741 dCne1p, single-copy integration, GAL1 promoter
T2 sequence (Q99571 with tags, fused parts or gaps): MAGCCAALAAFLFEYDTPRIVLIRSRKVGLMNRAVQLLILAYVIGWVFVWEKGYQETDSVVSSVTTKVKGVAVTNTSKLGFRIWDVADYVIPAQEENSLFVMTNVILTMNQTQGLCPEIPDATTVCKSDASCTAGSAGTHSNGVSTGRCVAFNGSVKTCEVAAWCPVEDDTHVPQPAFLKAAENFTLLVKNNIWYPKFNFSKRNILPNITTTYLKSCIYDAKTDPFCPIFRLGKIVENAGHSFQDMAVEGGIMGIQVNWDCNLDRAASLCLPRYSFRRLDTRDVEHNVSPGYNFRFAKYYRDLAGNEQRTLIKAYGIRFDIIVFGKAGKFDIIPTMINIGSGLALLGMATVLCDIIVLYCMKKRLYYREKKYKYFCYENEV
Protocol: as §1, §2

P2X7 = biological target: T3, P2X7 (Homo sapiens, UniProt Q99572); test: as above; type: cell-based; conditions: upon ATP addition
T3 construct: expressed in transfected cells; host or cells: Saccharomyces cerevisiae BY4741 dCne1p, genome-integrated under the GAL1 promoter
T3 sequence (Q99572 1-595): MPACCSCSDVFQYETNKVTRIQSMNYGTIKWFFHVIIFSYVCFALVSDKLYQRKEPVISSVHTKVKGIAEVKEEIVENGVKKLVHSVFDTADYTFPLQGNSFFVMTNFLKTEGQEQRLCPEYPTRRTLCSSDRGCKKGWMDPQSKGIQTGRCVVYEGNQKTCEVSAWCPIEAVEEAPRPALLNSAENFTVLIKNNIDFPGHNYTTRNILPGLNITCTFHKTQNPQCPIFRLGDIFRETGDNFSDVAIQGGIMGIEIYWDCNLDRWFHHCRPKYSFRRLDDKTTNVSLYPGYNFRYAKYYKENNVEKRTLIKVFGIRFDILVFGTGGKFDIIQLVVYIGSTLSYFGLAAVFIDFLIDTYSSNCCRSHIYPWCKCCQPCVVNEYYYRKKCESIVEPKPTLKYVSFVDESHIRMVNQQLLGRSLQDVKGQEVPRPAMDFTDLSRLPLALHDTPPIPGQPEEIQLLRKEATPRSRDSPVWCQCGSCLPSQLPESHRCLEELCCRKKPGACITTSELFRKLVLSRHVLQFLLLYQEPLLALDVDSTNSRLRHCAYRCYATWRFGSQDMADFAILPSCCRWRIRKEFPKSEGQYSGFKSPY
Protocol: as §1, §2

P2X2 [1] = biological target: T4, P2X2 (Homo sapiens, UniProt Q9UBL9); test: Plate-based aequorin luminescence assay of P2X2 expressed in yeast; type: cell-based; set-up: expressed in transfected cells; host or cells: Saccharomyces cerevisiae BY4741 dCne1p, genome-integrated under the GAL1 promoter, aequorin on a high-copy plasmid
T4 sequence (Q9UBL9 1-471): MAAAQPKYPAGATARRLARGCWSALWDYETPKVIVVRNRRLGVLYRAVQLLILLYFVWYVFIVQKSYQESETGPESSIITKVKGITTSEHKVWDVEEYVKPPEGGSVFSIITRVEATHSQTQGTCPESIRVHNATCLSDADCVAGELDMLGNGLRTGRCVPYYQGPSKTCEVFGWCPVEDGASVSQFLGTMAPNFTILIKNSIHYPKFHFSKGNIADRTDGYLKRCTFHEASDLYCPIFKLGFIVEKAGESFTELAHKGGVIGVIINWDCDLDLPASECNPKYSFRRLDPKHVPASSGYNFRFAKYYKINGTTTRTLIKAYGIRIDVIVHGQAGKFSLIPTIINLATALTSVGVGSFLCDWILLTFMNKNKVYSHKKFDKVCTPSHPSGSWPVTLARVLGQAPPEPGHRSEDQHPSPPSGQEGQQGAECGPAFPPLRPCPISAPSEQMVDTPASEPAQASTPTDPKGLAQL
Protocol: as §1
To determine whether or not this truncated channel gated in yeast, an aequorin-based functional assay was used. Here aequorin, a bioluminescent protein, emits a photon upon binding calcium. This is done with the aid of coelenterazine, which must be added exogenously to yeast. The reaction is not catalytic, and the off-rate of calcium is too slow to observe on the timescales utilized in our assays. To optimize conditions for expression of both the receptor and reporter, a combination of integration, low-copy, and high-copy vectors was used. At this point, it was only possible to produce a signal upon addition of ATP, the native ligand, when both the receptor and reporter were expressed on high-copy plasmids (FIG. 56).
BY4741ΔCne1p cells were transformed with vectors containing P2X variants. Transformants were validated and made competent for a subsequent transformation with a vector containing aequorin under the expression of the constitutive PGK2 promoter. Overnight cells were induced with 2% […] for 20 hours. Following receptor expression, cells were collected by centrifugation and concentrated to 500 μL. The concentrated cells were then incubated with 5 μL of 1 mg/mL coelenterazine for 30 minutes at room temperature. Washed cells were then resuspended in softening buffer (1 M Sorbitol, 25 mM EDTA, 50 mM DTT), followed by washes in 1 M sorbitol and water. Cells were then resuspended in 50 mM MES/Tris pH 6.5 and aliquoted into a 96-well plate. Using an F500, 25 μL of cells were monitored for luminescence for 5 seconds. Upon addition of ligand or buffer (100 μL), cells were monitored for luminescence for varying times. Cell lysis was performed with the addition of 100 μL Tween20. For inhibition, varying concentrations of suramin were incubated with cells. Luminescence was monitored before and after the addition of 100 μL of 10 μM ATP. Areas under the curve were calculated and plotted against a negative control to determine the IC50.

human 5HT1A = biological target: T5, human 5HT1A (Homo sapiens, UniProt P08908); test: GPCR-CPR proof of concept, emulsion PCR amplification in yeast; type: cell-based; conditions: cells treated with 250 μM serotonin vs negative control; single-copy integration at HO site
T5 construct: expressed in transfected cells; host or cells: Saccharomyces cerevisiae JG05-2.0 (2 micron plasmid, pTDH3) / JG05-1.0 (single-copy integration at HO)
T5 sequence (P08908 1-422): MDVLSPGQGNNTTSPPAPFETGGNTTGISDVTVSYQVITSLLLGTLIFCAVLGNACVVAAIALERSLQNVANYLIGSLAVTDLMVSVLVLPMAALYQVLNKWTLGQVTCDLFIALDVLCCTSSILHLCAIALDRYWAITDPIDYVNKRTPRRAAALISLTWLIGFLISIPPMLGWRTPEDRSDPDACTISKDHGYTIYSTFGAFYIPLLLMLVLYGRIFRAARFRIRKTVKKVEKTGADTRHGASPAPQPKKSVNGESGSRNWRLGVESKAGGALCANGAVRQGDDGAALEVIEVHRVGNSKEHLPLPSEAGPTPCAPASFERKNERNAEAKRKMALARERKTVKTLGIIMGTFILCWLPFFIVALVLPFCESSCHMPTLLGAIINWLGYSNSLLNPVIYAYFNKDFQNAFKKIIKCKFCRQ
Text: Having shown functionality of the 5HT1A receptor, CPR strains (JG05-1.0) were constructed using this receptor. […] However, background was mitigated by increasing the pH of the CPR master mix to pH 8.8 and lowering the number of cycles from 35 to 20 during the emulsion PCR. […] Further optimization of expression parameters can greatly increase the signal:noise. For example, a much more pronounced difference can be seen when expressing the receptor from a high-copy plasmid. The experiments outlined here were also performed with cells growing with the ligand for 18 hours. By concentrating the cells and limiting the time of induction, a decrease in background signal can be seen.
Control cells were not induced. Cells (3 mL total) were collected after 18 hours of induction and spun in a tabletop centrifuge at 3,000×g for 5 minutes. The supernatant was discarded and the cell pellet was washed in water and then resuspended in 1 M sorbitol, 25 mM EDTA, 50 mM DTI′. Cells were collected again and washed in 1 M sorbitol. After another wash with water, cells were resuspended in 500 μL PCR mastermix (pH 8.0 or pH 8.8). The resuspended cells were placed into a 2 mL tube with a 1 mL rubber syringe plunger and 1200 μL of oil mix (876 Tegosoft DEC, 84 Gransurf W9, and 240 μL light mineral oil (Sigma-Aldrich)). […]

P2X2 [2] = biological target: T4, P2X2; conditions: Baqi et al., 2011; Lambrecht et al., 2002; read-out: range of reported IC50 values; cited from earlier work

Q: For `Nc1ncnc2c1ncn2[C@@H]1O[C@H](COP(=O)(O)OP(=O)(O)OP(=O)(O)O)[C@@H](O)[C@H]1O` [ATP], which “ligand-dependent gating, calcium influx” value (P2X1) is on record?
A: showed an ATP-dependent calcium influx

Q: And the “ligand-dependent gating, calcium influx” value (P2X4)?
A: showed an ATP-dependent calcium influx

Q: What about the “ligand-dependent gating, calcium influx” value (P2X7) of the same molecule?
A: showed an ATP-dependent calcium influx

Q: And the “agonism / gating of P2X2” value (P2X2 [1]; aequorin luminescence)?
A: showed an ATP-dependent calcium influx

Q: What about the EC50 (P2X2 [1]; dose-response, area under luminescence curve) of the same molecule?
A: 6.7 ± 1.5 µM

Q: For `NCCc1c[nH]c2ccc(O)cc12` [serotonin], which “increase in signal of CPR amplification product” value (human 5HT1A) is on record?
A: 20 fold

Q: Which results are given for `Cc1ccc(C(=O)Nc2ccc(S(=O)(=O)O)c3cc(S(=O)(=O)O)cc(S(=O)(=O)O)c23)cc1NC(=O)c1cccc(NC(=O)Nc2cccc(C(=O)Nc3cc(C(=O)Nc4ccc(S(=O)(=O)O)c5cc(S(=O)(=O)O)cc(S(=O)(=O)O)c45)ccc3C)c2)c1` [suramin]?
A: IC50 (P2X2 [2]): 2 to 48 µM; IC50 (P2X2 [1]; cells equilibrated with suramin, then 10 μM ATP): 31.6 ± 1.4 µM
